Laboratory results published in US20120029187A1, “HALOALKYLSULFONANILIDE DERIVATIVE” (Nissan Chemical Industries, Ltd., priority 2009, published 2012).

How the values were obtained:
Assay type in all cases: in vivo
barnyardgrass [1] = assay: Test Example 1: herbicidal effects in preemergence treatment under submerged conditions; details: dose 2.52 g/a
In short: (§1)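 Score 0–5 by mortality (5: ≥90%; 0: <5%), read 3 weeks post-application. Paddy-type cups: alluvial soil under 4 cm water, weeds seeded plus transplanted 2.5-leaf rice; diluted EC dosed onto water surface same day as sowing, g/a basis; greenhouse 25 to 30° C.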

bulrush [2] = assay: as above; details: dose 2.52 g/a
In short: as §1

ducksalad [3] = assay: as above; details: dose 2.52 g/a
In short: as §1

transplanted rice = assay: Test Example 1: preemergence treatment under submerged conditions, effect on crop; details: dose 2.52 g/a
In short: as §1

barnyardgrass [4] = assay: Test Example 2: herbicidal effects during the vegetation period under submerged conditions; details: treatment during the vegetation period under submerged conditions; dose 2.52 g/a
In short: (§2)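 Barnyardgrass, bulrush and ducksalad were co-sown in alluvial soil flooded to 4 cm and grown in a greenhouse at 25 to 30° C. At the 1- or 2-leaf stage, water-diluted emulsifiable concentrates went onto the water surface at set doses (g/a). Herbicidal effect was scored three weeks later on a graded scale.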

bulrush [5] = assay: as above; details: treatment during the vegetation period under submerged conditions; dose 2.52 g/a
In short: as §2

ducksalad [6] = assay: as above; details: treatment during the vegetation period under submerged conditions; dose 2.52 g/a
In short: as §2

Italian ryegrass [7] = assay: Test Example 3: herbicidal effects in soil treatment; details: dose 3.2 g/a
In short: (§3)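 Seeds were sown in sterilized diluvial soil and covered with about 1.5 cm of soil. Compounds, formulated as emulsifiable concentrates and diluted with water, were sprayed evenly over the soil surface at set doses in g/a. Herbicidal effect was scored on a rating scale three weeks later.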

barnyardgrass [8] = assay: as above; details: dose 3.2 g/a
In short: as §3

common chickweed [9] = assay: as above; details: dose 3.2 g/a
In short: as §3

common lambsquater [10] = assay: as above; details: dose 3.2 g/a
In short: as §3

common ragweed [11] = assay: as above; details: dose 3.2 g/a
In short: as §3

giant foxtail [12] = assay: as above; details: dose 3.2 g/a
In short: as §3

large crabgrass [13] = assay: as above; details: dose 3.2 g/a
In short: as §3

posumbu knotweed [14] = assay: as above; details: dose 3.2 g/a
In short: as §3

redroot pigweed [15] = assay: as above; details: dose 3.2 g/a
In short: as §3

velvetleaf [16] = assay: as above; details: dose 3.2 g/a
In short: as §3

water foxtail [17] = assay: as above; details: dose 3.2 g/a
In short: as §3

Italian ryegrass [18] = assay: Test Example 4: herbicidal effect in foliage treatment; details: dose 3.2 g/a, three weeks after application
In short: (§4)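 Seeds were spot-sown in boxes of sterilized diluvial soil and raised in a greenhouse (25 to 30° C) for 14 days before a single foliar application. Compounds were applied as emulsifiable concentrates diluted with water, at predetermined doses in g/a. Injury was graded three weeks post-spray.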

barnyardgrass [19] = assay: as above; details: dose 3.2 g/a, three weeks after application
In short: as §4

beadstraw = assay: as above; details: dose 3.2 g/a, three weeks after application
In short: as §4

common chickweed [20] = assay: as above; details: dose 3.2 g/a, three weeks after application
In short: as §4

common lambsquater [21] = assay: as above; details: dose 3.2 g/a, three weeks after application
In short: as §4

common ragweed [22] = assay: as above; details: dose 3.2 g/a, three weeks after application
In short: as §4

giant foxtail [23] = assay: as above; details: dose 3.2 g/a, three weeks after application
In short: as §4

large crabgrass [24] = assay: as above; details: dose 3.2 g/a, three weeks after application
In short: as §4

posumbu knotweed [25] = assay: as above; details: dose 3.2 g/a, three weeks after application
In short: as §4

redroot pigweed [26] = assay: as above; details: dose 3.2 g/a, three weeks after application
In short: as §4

velvetleaf [27] = assay: as above; details: dose 3.2 g/a, three weeks after application
In short: as §4

water foxtail [28] = assay: as above; details: dose 3.2 g/a, three weeks after application
In short: as §4

| SMILES | A: barnyardgrass, herbicidal effect (evaluation scale 0-5) (barnyardgrass [1]) | B: bulrush, herbicidal effect (evaluation scale 0-5) (bulrush [2]) | C: ducksalad, herbicidal effect (evaluation scale 0-5) (ducksalad [3]) | a: transplanted rice, effect on crop (evaluation scale 0-5) (transplanted rice) | A: barnyardgrass, herbicidal effect (evaluation scale 0-5) (barnyardgrass [4]) | B: bulrush, herbicidal effect (evaluation scale 0-5) (bulrush [5]) | C: ducksalad, herbicidal effect (evaluation scale 0-5) (ducksalad [6]) | H: Italian ryegrass, herbicidal effect (evaluation scale 0-5) (Italian ryegrass [7]) | A: barnyardgrass, herbicidal effect (evaluation scale 0-5) (barnyardgrass [8]) | N: common chickweed, herbicidal effect (evaluation scale 0-5) (common chickweed [9]) | L: common lambsquater, herbicidal effect (evaluation scale 0-5) (common lambsquater [10]) | J: common ragweed, herbicidal effect (evaluation scale 0-5) (common ragweed [11]) | E: giant foxtail, herbicidal effect (evaluation scale 0-5) (giant foxtail [12]) | D: large crabgrass, herbicidal effect (evaluation scale 0-5) (large crabgrass [13]) | M: posumbu knotweed, herbicidal effect (evaluation scale 0-5) (posumbu knotweed [14]) | K: redroot pigweed, herbicidal effect (evaluation scale 0-5) (redroot pigweed [15]) | I: velvetleaf, herbicidal effect (evaluation scale 0-5) (velvetleaf [16]) | G: water foxtail, herbicidal effect (evaluation scale 0-5) (water foxtail [17]) | H: Italian ryegrass, herbicidal effect (Italian ryegrass [18]) | A: barnyardgrass, herbicidal effect (barnyardgrass [19]) | further results |
| --- | --- | --- | --- | --- | --- | --- | --- | --- | --- | --- | --- | --- | --- | --- | --- | --- | --- | --- | --- | --- | --- |
| CCOC(=O)N(c1ccccc1CN1COC(C)(COC)CC1=O)S(=O)(=O)C(F)(F)F (stereo not drawn) [II-55] | 5 (mortality of 90% or above (nearly complete death)) | 5 (mortality of 90% or above (nearly complete death)) | 5 (mortality of 90% or above (nearly complete death)) | 0 (mortality of less than 5% (almost ineffective)) | 5 (mortality of 90% or above (nearly complete death)) | 5 (mortality of 90% or above (nearly complete death)) | 5 (mortality of 90% or above (nearly complete death)) | 5 (mortality of 90% or above (nearly complete death)) | 5 (mortality of 90% or above (nearly complete death)) | 5 (mortality of 90% or above (nearly complete death)) | 4 (mortality of at least 70% and less than 90%) | 5 (mortality of 90% or above (nearly complete death)) | 5 (mortality of 90% or above (nearly complete death)) | 5 (mortality of 90% or above (nearly complete death)) | 5 (mortality of 90% or above (nearly complete death)) | 3 (mortality of at least 40% and less than 70%) | 5 (mortality of 90% or above (nearly complete death)) | 5 (mortality of 90% or above (nearly complete death)) | 5 (mortality of 90% or above (nearly complete death)) | 5 (mortality of 90% or above (nearly complete death)) | O: beadstraw, herbicidal effect (beadstraw): 4 (mortality of at least 70% and less than 90%); N: common chickweed, herbicidal effect (common chickweed [20]): 4 (mortality of at least 70% and less than 90%); L: common lambsquater, herbicidal effect (common lambsquater [21]): 4 (mortality of at least 70% and less than 90%); J: common ragweed, herbicidal effect (common ragweed [22]): 4 (mortality of at least 70% and less than 90%); E: giant foxtail, herbicidal effect (giant foxtail [23]): 5 (mortality of 90% or above (nearly complete death)); D: large crabgrass, herbicidal effect (large crabgrass [24]): 4 (mortality of at least 70% and less than 90%); M: posumbu knotweed, herbicidal effect (posumbu knotweed [25]): 3 (mortality of at least 40% and less than 70%); K: redroot pigweed, herbicidal effect (redroot pigweed [26]): 0 (mortality of less than 5% (almost ineffective)); I: velvetleaf, herbicidal effect (velvetleaf [27]): 5 (mortality of 90% or above (nearly complete death)); G: water foxtail, herbicidal effect (water foxtail [28]): 5 (mortality of 90% or above (nearly complete death)) |
| CCOC(=O)N(c1ccccc1CN1COC2(CCCCC2)CC1=O)S(=O)(=O)C(F)(F)F [II-68] | 5 (mortality of 90% or above (nearly complete death)) | 5 (mortality of 90% or above (nearly complete death)) | 5 (mortality of 90% or above (nearly complete death)) | 3 (mortality of at least 40% and less than 70%) | 5 (mortality of 90% or above (nearly complete death)) | 5 (mortality of 90% or above (nearly complete death)) | 5 (mortality of 90% or above (nearly complete death)) | 5 (mortality of 90% or above (nearly complete death)) | 5 (mortality of 90% or above (nearly complete death)) | 4 (mortality of at least 70% and less than 90%) | 4 (mortality of at least 70% and less than 90%) | 2 (mortality of at least 20% and less than 40%) | 5 (mortality of 90% or above (nearly complete death)) | 5 (mortality of 90% or above (nearly complete death)) | 5 (mortality of 90% or above (nearly complete death)) | 3 (mortality of at least 40% and less than 70%) | 5 (mortality of 90% or above (nearly complete death)) | 5 (mortality of 90% or above (nearly complete death)) | 1 (mortality of at least 5% and less than 20%) | 5 (mortality of 90% or above (nearly complete death)) | O: beadstraw, herbicidal effect (beadstraw): 3 (mortality of at least 40% and less than 70%); N: common chickweed, herbicidal effect (common chickweed [20]): 4 (mortality of at least 70% and less than 90%); L: common lambsquater, herbicidal effect (common lambsquater [21]): 4 (mortality of at least 70% and less than 90%); J: common ragweed, herbicidal effect (common ragweed [22]): 3 (mortality of at least 40% and less than 70%); E: giant foxtail, herbicidal effect (giant foxtail [23]): 5 (mortality of 90% or above (nearly complete death)); D: large crabgrass, herbicidal effect (large crabgrass [24]): 4 (mortality of at least 70% and less than 90%); M: posumbu knotweed, herbicidal effect (posumbu knotweed [25]): 2 (mortality of at least 20% and less than 40%); K: redroot pigweed, herbicidal effect (redroot pigweed [26]): 2 (mortality of at least 20% and less than 40%); I: velvetleaf, herbicidal effect (velvetleaf [27]): 4 (mortality of at least 70% and less than 90%); G: water foxtail, herbicidal effect (water foxtail [28]): 3 (mortality of at least 40% and less than 70%) |
